According to patent US7410960B2, “Metal complexes and therapeutic uses thereof” (The University of Western Sydney, priority 2001, dated 2008):
Values joined by “and” are separate entries in the source; they are usually repeats but may differ in a detail not shown here. Equal values may be shown once. Read-outs that look alike come from different tables or passages of the source.

How the values were obtained:
[1] = tested on: KYSE 520 (esophagus); test: Growth inhibition IC50, KYSE 520 (esophagus) cell line; assay type: cell-based; details: value (standard deviation)
Protocol: (§1) When we compare the effect of changing the diamine from the non-chiral 1,2-diaminoethane (en) to the chiral ligands and 2S,3S-diaminobutane (2S,3S-bn) and 2R,3R-diaminobutane (2R,3R-bn) then the concentration inhibiting the exponential growth of cells to 50% is further reduction from 27.0 to 1.11 and 0.32 μM respectively.

[2] = tested on: A-427 (lung); test: Growth inhibition IC50, A-427 (lung) cell line; assay type: cell-based; details: value (standard deviation)
Protocol: as §1

[3] = tested on: LCLC-103H (lung); test: Growth inhibition IC50, LCLC-103H (lung) cell line; assay type: cell-based; details: value (standard deviation)
Protocol: as §1

[4] = tested on: 5637 (bladder); test: Growth inhibition IC50, 5637 (bladder) cell line; assay type: cell-based; details: value (standard deviation)
Protocol: as §1

[5] = tested on: L1210 mouse leukaemia cells; test: CC growth inhibition assay, L1210; assay type: cell-based; details: Test CC, 40 μM highest dose tested
Text: (§2) The data presented in Table3 is the results collected from the growth inhibition studies of selected compounds with the following cell lines: L1210 (mouse leukaemia cells), 2008 (human ovarian carcinoma cells), L1210/DDP and C13*5 (acquired cisplatin resistance) and SKOV-3 (intrinsic cisplatin resistance).

[6] = tested on: L1210/DDP cisplatin-resistant cells; test: CC growth inhibition assay, L1210/DDP; assay type: cell-based, mouse; details: Test CC, 40 μM highest dose tested
Text: as §2

[7] = tested on: C13*5 cisplatin-resistant cells; test: Sulphorhodamine B (SRB) growth inhibition assay, C13; assay type: cell-based, human; details: Test SRB, acquired cisplatin resistance
Text: as §2

[8] = tested on: 2008 human ovarian carcinoma cells; test: Sulphorhodamine B (SRB) growth inhibition assay, 2008; assay type: cell-based; details: Test SRB
Text: as §2

[9] = tested on: SKOV-3 cells (intrinsically resistant to cisplatin); test: Sulphorhodamine B (SRB) growth inhibition assay, SKOV-3; assay type: cell-based; details: Test SRB, intrinsic cisplatin resistance
Text: as §2

[10] = first run, read-out: IC50 5637 (bladder)
[11] = repeat run, read-out: IC50 5637 (bladder) Repeat
[12] = listed as [Pt(R,R-bn)(phen)]Cl2
[13] = listed as [Pt(S,S-bn)(phen)]Cl2
[14] = listed as [Pt(R,R-dach)(phen)](ClO4)2
[15] = listed as [Pt(S,S-dach)(phen)](ClO4)2

Row | Compound | IC50 [1] | IC50 [2] | IC50 [3] | IC50 [4, 10] | IC50 [4, 11] | other results
1 | N.N.[Cl][Pt][Cl] [CDDP, cis-diamminedichloroplatinum (II), reference compound] | 6.63 µM | 4.46 µM | 1.44 µM | 0.88 µM | 0.43 µM | –
2 | CC(N)C(C)N.[Cl-].[Cl-].[Pt+2].c1cnc2c(c1)ccc1cccnc12 [[Pt(2R,3R-bn)(phen)]Cl2] [(2R,3R-butanediamine)(1,10-phenanthroline)platinum(II) cation] | 0.67 µM | 0.54 µM | 0.78 µM | 0.32 µM | 0.43 µM | IC50 [5, 12]: 1.5 µM; IC50 [6, 12]: 2.5 µM and 1.9 µM; IC50 [7, 12]: 5.2 µM and 9 µM and 7.4 µM
3 | CC(N)C(C)N.[Cl-].[Cl-].[Pt+2].c1cnc2c(c1)ccc1cccnc12 [[Pt(2S,3S-bn)(phen)]Cl2] [(2S,3S-butanediamine)(1,10-phenanthroline)platinum(II) cation] | 1.87 µM | 1.35 µM | 2.39 µM | 1.11 µM | 0.98 µM | IC50 [5, 13]: 3.8 µM and 3 µM; IC50 [6, 13]: 5.3 µM and 8 µM; IC50 [8, 13]: 7.2 µM and 11 µM; IC50 [7, 13]: 26 µM and 22 µM and 28 µM; IC50 [9, 13]: 9.8 µM and 9.2 µM and 12 µM
4 | NCCN.[Cl-].[Cl-].[Pt+2].c1cnc2c(c1)c1nccnc1c1cccnc12 [[Pt(en)(dpq)]Cl2] | 19.4 µM | 16.4 µM | 23.6 µM | 16.7 µM | – | –
5 | [Cl-].[Cl-].c1cc2ccc3ccc[n+]4c3c2[n+](c1)[Pt-2]41[NH2+]CC[NH2+]1 [[Pt(en)(phen)]Cl2, reference compound] | 49.1 µM | 24.1 µM | 41.2 µM | 27 µM | 23.7 µM | –
6 | CC(N)C(C)N.[Cl-].[Cl-].[Pt+2].c1cnc2c(c1)ccc1cccnc12 [[Pt(meso-2,3-bn)(phen)]Cl2] [(2S,3R-butanediamine)(1,10-phenanthroline)platinum(II) cation] | 1.09 µM | 0.92 µM | 1.07 µM | 0.61 µM | 0.72 µM | –
7 | N[C@@H]1CCCC[C@H]1N.[O-][Cl+3]([O-])([O-])[O-].[O-][Cl+3]([O-])([O-])[O-].[Pt+2].c1cnc2c(c1)ccc1cccnc12 [[Pt(phen)(R,R-dach)](ClO4)2, (1R,2R-cyclohexanediamine)(1,10-phenanthroline)platinum(II) cation] | – | – | – | – | 0.54 µM | IC50 [5, 14]: 1.4 µM and 1.6 µM; IC50 [6, 14]: 4.3 µM and 4.5 µM; IC50 [8, 14]: 3.3 µM and 3.1 µM; IC50 [7, 14]: 5.1 µM and 9.2 µM; IC50 [9, 14]: 3.3 µM and 3.6 µM
8 | N[C@H]1CCCC[C@@H]1N.[O-][Cl+3]([O-])([O-])[O-].[O-][Cl+3]([O-])([O-])[O-].[Pt+2].c1cnc2c(c1)ccc1cccnc12 [[Pt(phen)(S,S-dach)](ClO4)2, (1S,2S-cyclohexanediamine)(1,10-phenanthroline)platinum(II) cation] | – | – | – | – | 0.15 µM | IC50 [5]: 0.13 µM; IC50 [6]: 0.28 ± 0.09 µM; IC50 [8, 15]: 0.37 µM and 0.45 µM; IC50 [7, 15]: 0.56 µM and 0.88 µM; IC50 [9, 15]: 0.31 µM and 0.42 µM
9 | (N,N′-dimethyl-1R,2R-cyclohexanediamine)(1,10-phenanthroline)platinum(II) cation [[Pt(phen)(Me2-R,R-dach)](ClO4)2] | – | – | – | – | 23.6 µM | –
10 | (N,N′-dimethyl-1S,2S-cyclohexanediamine)(1,10-phenanthroline)platinum(II) cation [[Ptphen)(Me2-S,S-dach](ClO4)2] | – | – | – | – | 55.6 µM | IC50 ([5]; listed as [Pt(Me2—S,S-dach)(phen)](ClO4)2): 12 µM
